One experiment concerns U87-MG. The experiment is described as follows: In vivo play-off phage auditioning, U87-MG tumor. Details: species or system human glioblastoma in athymic nude mice. The following applies: phage-displayed peptide; equimolar mix, i.v. 1 × 10^10 pfu/mouse, 2 h circulation, perfusion; Ion-Torrent sequencing; mean, N = 3 mice. How it is done: (§1) Athymic nude mice (Hsd/Athymic Fox1 nu Harlan) were purchased from Envigo (Netherlands) and maintained under standard housing conditions of the Animal Facility of the Institute of Biomedicine and Translational Medicine, University of Tartu (Tartu, Estonia). For orthotropic GBM tumor models, we used NCH421K, P13, and P3 stem cell-like, WT-GBM cells. The individual GBM cells around 2–3 × 10^5 in 3 μL PBS were intracranially implanted into mice brain 2 mm right and 1 mm anterior to the bregma. U87-MG and PC3 subcutaneous models were induced by injecting 2–9 × 10^6 cells in 100 µl PBS subcutaneously into the right flank of 11–15 week old male and female nude mice. All animal experiments were performed in accordance with the procedures approved by the Committee of Animal Experimentation of Estonian Ministry of Agriculture, permits #42 and #48.
(§2) In vivo play-off was used for internally controlled and competitive systemic phage homing studies in mice bearing tumor xenografts. Phages displaying the candidate TNC-C binding peptides and control peptides were individually amplified and purified by precipitation with PEG-8000 (Sigma-Aldrich, St. Louis, MO, USA), followed by […] gradient ultracentrifugation and dialysis. The phages were pooled at equimolar representation (Table 1 for details) and injected iv at 1 × 10^10 pfu (in 200 µl PBS) in tumor-bearing mice, circulated for 2 h, followed by anesthesia and intracardial perfusion with DMEM. The tumors and organs were collected in lysogeny broth (LB) medium containing 1% NP40, and the tissues were homogenized using a hand-held homogenizer. Phages in the tissue lysate were amplified in E.coli, purified by precipitation with PEG-8000, and DNA was extracted using a DNA extraction kit (High Pure PCR Template Preparation Kit; Roche, Basel, Switzerland). Next-generation sequencing of phage genomic DNA with Ion Torrent system (Thermo Fisher Scientific, Waltham, MA, USA) was used to evaluate the representation of each peptide-phage in the input mixture, in tumors and control organs. The FASTQ data from Ion Torrent were processed using a custom python script that identified the barcodes, constant flanking residues, and extracted the reads of the correct length.

Experiment [1] concerns recombinant b1b2 domain of NRP-1. The experiment is described as follows: Cell-free phage binding to NRP-1. The following applies: T7 phage-displayed peptide. How it is done:
(§3) The eluted phages were titered and amplified for a next round of selection. After 5 rounds of selection, peptide-encoding DNA from a set of 48 phage clones was subjected to Sanger sequencing of peptide-encoding phage DNA[18],[22]. For cell-free binding studies with individual phage clones were incubated with Ni-NTA magnetic beads coated with hexahistidine-tagged TNC-C as above. RPARPAR phage binding to NRP-1-coated beads was used as a positive control. Phage clones displaying heptaglycine peptide (GGGGGGG, G7), or insertless phage clones were used as negative controls. […]
collected by centrifugation, resuspended in ice-cold IMAC buffer (25mM Tris-HCl, 400mM NaCl, 25mM imidazole pH 8, containing EDTA-free protease inhibitor cocktail and DNase I) and lysed by sonification (Bandelin Sonopuls HD 2070, Germany). […] TNC-C concentration was determined by bicinchoninic acid assay (Thermo Scientific #23227) , and the purity of the proteins was assessed by SDS -PAGE. […]
Single-chain antibodies: The cDNA sequences encoding TNC-C-G11-scFV were retrieved from US patent application EP2157102 A1, and synthetic DNA fragments were cloned in the pET28a+ expression plasmid. […] The purified antibodies were analyzed by SDS-PAGE. […]

For another experiment, the system named is fibronectin EDB-domain. The experiment can be described thus: Cell-free phage binding to fibronectin EDB. The following applies: T7 phage-displayed PL3; in words.
For another experiment, the system named is Norm. brain. The experiment can be described thus: In vivo play-off phage auditioning, normal brain. The arrangement: species or system athymic nude mice. The following applies: phage-displayed peptide; equimolar mix, i.v. 1 × 10^10 pfu/mouse, 2 h circulation, perfusion; Ion-Torrent sequencing; mean, N = 3 mice. How it is done: as §2
The subject of the next experiment is recombinant TNC-C. The experiment can be described thus: Cell-free phage binding to TNC-C. The following applies: T7 phage-displayed peptide; alanine scan expressed as percent binding of parental PL3 phage; 3 independent experiments. Details: species or system human. How it is done: For biopanning on recombinant human TNC-C, we used NNK-encoded CX7C and X7 peptide T7 phage libraries with diversity ~5 × 10^8. Throughout our screens, the selected phages were amplified following plate amplification protocol. The 1st and 4th rounds of biopanning were performed on TNC-C immobilized on Costar 96-Well ELISA plate (#3590, Corning Life Sciences, Tewksbury, MA, USA). Briefly, the multiwell plates were coated with 20 µg/ml recombinant TNC-C in 100 µl of PBS overnight at 4 °C, followed by blocking with 1% bovine serum albumin (BSA) in PBS overnight at 4 °C. The phage library (5 × 10^8 pfu in 100 µl of PBS-BSA) was incubated overnight at 4 °C, followed by 6 washes with PBS containing 1% BSA and 0.1% Tween-20 (washing buffer) to remove background phages, and by phage rescue and amplification in E. coli strain BLT5403 (Novagen, EMD Biosciences, MA, USA)[8]. The subsequent rounds of selection were performed on Ni-NTA Magnetic Agarose Beads (QIAGEN, Hilden, Germany) coated with His-6X tagged TNC-C (30 µg/10 µl beads) at room temperature for 1 h in 400 µl of PBS. The TNC-C beads were washed 3 times with washing buffer, followed by incubation with phages in (5 × 10^8 pfu in 100 µl in washing buffer) at room temperature for 1 h. The background phages were removed by rinsing 6 times with washing buffer, and the bound phages were eluted with 1 ml of PBS containing 500 mM Imidazole and 0.1% NP40.
as §3
Fig. S13. NRP -1-dependent internalization of PL3 -functionalized AgNPs […]
Supplementary Materials and Methods
Cloning, expression , and purification of TNC-C
Vector Construction. A pF1K (Promega, # FXC00319) derivative plasmid containing full -length cDNA of TNC was used for PCR amplification of cDNA region of TNC-C with Phusion Hot Start II High -Fidelity DNA Polymerase (Thermo Fisher Scientific Inc # F -537L; primer pairs:
5′- CTCCTCT […] -3′ and 5′ -
CAGACA CTCGAG TTATCA TGTAACAATCTC -3′ for domain TNC -C. NdeI and XhoI restriction sites underlined ). The fragments were cloned in the pET28a+ plasmid for TNC -C expression as a n N-terminally His -tagged protein .
Expression and purification of TNC-C. The pET28a+ TNC-C plasmid was used for transformation of E. coli BL21 Rosetta 2 (DE3) pLysS cells (Novagen, #70956). The protein expression was induced by addition of isopropyl β-D-1-thiogalactopyranoside (IPTG) (Sigma, # I6758) to 0.5 mM final concentration and the bacteria were culture d at 18 °C for 16h . Cells were […]
collected by centrifugation, resuspended in ice-cold IMAC buffer (25mM Tris-HCl, 400mM NaCl, 25mM imidazole pH 8, containing EDTA-free protease inhibitor cocktail and DNase I) and lysed by sonification (Bandelin Sonopuls HD 2070, Germany). The cleared bacterial lysate was purified using HiTrap IMAC HP column s (GE Healthcare # 17 -0920-05) on ÄKTA purification system (GE Healthcare ), and the eluate was dialyzed against PBS using 3.5 kDa cut - off 3mL Slide-A-Lyzer Dialysis Cassettes (Thermo Scientific #66330). TNC-C concentration was determined by bicinchoninic acid assay (Thermo Scientific #23227) , and the purity of the proteins was assessed by SDS -PAGE. Mass spectrometry and de novo peptide sequencing were used to confirm the size and sequence of the purified proteins . His-tagged NRP-1 b1b2 domain was expressed and purified as described (Teesalu et al., 2009) .
Single-chain antibodies: The cDNA sequences encoding TNC-C-G11-scFV were retrieved from […]

In another experiment the test system is PC3. The experiment can be described thus: In vivo play-off phage auditioning, PC3 tumor. Details: species or system prostate carcinoma in athymic nude mice. The following applies: phage-displayed peptide; equimolar mix, i.v. 1 × 10^10 pfu/mouse, 2 h circulation, perfusion; Ion-Torrent sequencing; mean, N = 3 mice. Here is the method:
as §1, §2

In the next experiment the test system is WT-GBM. The experiment can be described thus: In vivo play-off phage auditioning, WT-GBM tumor. The arrangement: species or system murine WT-GBM glioblastoma in athymic nude mice. The following applies: phage-displayed peptide; equimolar mix, i.v. 1 × 10^10 pfu/mouse, 2 h circulation, perfusion; Ion-Torrent sequencing; mean, N = 3 mice. How it is done:
as §1, §2

In the next experiment the test system is P13. The experiment can be described thus: In vivo play-off phage auditioning, P13 tumor. Details: species or system P13 glioblastoma in athymic nude mice. The following applies: phage-displayed peptide; equimolar mix, i.v. 1 × 10^10 pfu/mouse, 2 h circulation, perfusion; Ion-Torrent sequencing; mean, N = 3 mice. How it is done: as §1, §2
Another experiment deals with P3 SCL. The experiment can be described thus: In vivo play-off phage auditioning, P3 SCL tumor. The arrangement: species or system P3 stem cell-like glioblastoma in athymic nude mice. The following applies: phage-displayed peptide; equimolar mix, i.v. 1 × 10^10 pfu/mouse, 2 h circulation, perfusion; Ion-Torrent sequencing; mean, N = 3 mice. How it is done:
as §1, §2

The subject of experiment [2] is tumor tissue across models (4 glioma models and 1 prostate cancer model). The experiment is described as follows: In vivo play-off phage auditioning, across tumor models. Details: species or system nude mice. The following applies: T7 phage play-off, i.v., 2 h. How it is done: as §2
In experiment [3] the target is recombinant human Tenascin-C FnIII C domain (TNC-C), hexahistidine-tagged. The experiment can be described thus: phage binding to immobilized recombinant protein (cell-free). The following applies: read off a plot.
Experiment [4] deals with recombinant b1b2 domain of neuropilin-1 (NRP-1). The experiment is described as above. The following applies: read off a plot.
Experiment [5] has the same target. The experiment is described as follows: phage binding assay; individual T7 phage clones incubated with Ni-NTA magnetic beads coated with hexahistidine-tagged TNC-C (30 ug/10 ul beads) or NRP-1-coated beads, room temperature 1 h, washing buffer PBS with 1% BSA and 0.1% Tween-20, elution with 500 mM imidazole and 0.1% NP40, phage titered; binding as fold heptaglycine (G7) control phage or percent of parental PL3 phage.

The target of experiment [6] is recombinant human Tenascin-C FnIII C domain (TNC-C), hexahistidine-tagged (human). The experiment is described as follows: fluorescence polarisation; fluorescence anisotropy saturation binding; 0.66 uM FAM-Cys-PL3 with 0-112 uM NRP1 or 0-275 uM TNC-C; DPBS with 0.1% Pluronic F-127; 24 h at 25 C; non-specific binding with 500 uM Biotin-Ahx-PL3; global fit, single binding site with ligand depletion.

Experiment [7] deals with recombinant b1b2 domain of neuropilin-1 (NRP-1). The description is as above.

Entries after “also recorded” stand apart in the source; their conditions may differ. Ends that are not written are not given here.

On to “AGRGRLVR (left off: T7 phage particle (peptide displayed on it), end not stated, kept) [PL3]”, for which the “Representation of phage in tumors, U87-MG” value in the experiment on U87-MG is reported as 2.1 fold G7 control phage. The “phage binding to NRP-1 (in words)” value in [1] (NRP-1 b1b2-coated beads) was “binds”. In addition, the “PL3 phage binding to b1b2 domain of NRP-1 vs heptaglycine control phage” value in [1] (fold over G7 control phage) is ~ 200 fold. Besides, in the experiment with fibronectin EDB-domain, the “phage binding to fibronectin EDB-domain” value is reported as “did not bind; also recorded: no binding”. The “Representation of phage in control brain tissue (Norm. brain)” value with Norm. brain came to 0.4 fold G7 control phage. In addition, in the experiment with recombinant TNC-C, the “phage binding to recombinant TNC-C (in words)” value is “binds; also recorded: robust interaction with TNC-C”. Moreover, the “Representation of phage in tumors, PC3” value in the experiment on PC3 is recorded as 3.9 fold G7 control phage. Also, the “Representation of phage in tumors, WT-GBM” value in the experiment on WT-GBM is given as 24.1 fold G7 control phage. Also, the “Representation of phage in tumors, P13” value in the experiment on P13 is reported as 4.7 fold G7 control phage. Further, in the experiment with P3 SCL, the “Representation of phage in tumors, P3 SCL” value is reported as 2.1 fold G7 control phage. Further, the “representation in tumor tissue across models” value in experiment [2] is on record as “overrepresented in tumor tissue across models tested”.

Consider “T7 phage displaying PL3 peptide (AGRGRLVR) G2A”, for which the values for the percent of parent in experiment [3] and in experiment [4] were 100% and 92%, respectively.

As to “T7 phage displaying PL3 peptide (AGRGRLVR) G4A”, the percent of parent is 90% in experiment [3] and 96% in experiment [4].

For the molecule “T7 phage displaying PL3 peptide (AGRGRLVR) R5A”, the percent of parent in experiment [3] came out at 49%; in [4], 190%.

Take “T7 phage displaying PL3 peptide (AGRGRLVR) R8A”: the percent of parent is 26% in [3] and 19% in experiment [4].

Take AGRGRLVR [T7 phage displaying PL3 peptide (AGRGRLVR)]: the fold binding over heptaglycine control phage in [5] worked out at 200 fold.

B1: FAM-Cys-PL3 fluorescent peptide (peptide)
peptide: CAGRGRLVR
modifications: not fully specified (N-terminus); also: 6-aminohexanoic acid spacer, position not given here
The term Kd denotes the concentration at which binding is half-saturated. B1: the values for the Kd in experiment [6] and in experiment [7] were 51 µM and 1.1 µM, respectively.

The values are drawn from article PMC7118115, “Tumor-penetrating peptide for systemic targeting of Tenascin-C” (Scientific Reports, 2020).
